In ChEMBL document CHEMBL4390702, “Discovery of novel phenoxybenzamide analogues as Raf/HDAC dual inhibitors” (Bioorg Med Chem Lett, 2019):
The source made the active and inactive calls. No cut-off for these calls is given here.

How the values were obtained:
Histone deacetylase 1 [1] = target: T1, Histone deacetylase 1 (Homo sapiens, UniProt Q13547); assay: Inhibition of HDAC1 (unknown origin)
[2] = target: Serine/threonine-protein kinase B-raf (Homo sapiens, UniProt P15056, V600E); assay: Inhibition of recombinant human N-terminal GST-tagged BRAF V600E mutant catalytic domain (416 to 766 residues) expressed in baculovirus expression system using human His6-tagged MEK1 (K97R) as substrate preincubated for 20 mins followed by [33P-gamma]ATP addition and measured after 2 hrs by filter-binding assay
Histone deacetylase 1 [3] = target: T1, Histone deacetylase 1; assay: Inhibition of recombinant full-length human C-terminal FLAG/His-tagged HDAC1 expressed in baculovirus infected Sf9 insect cells using Fluor-de-Lys as substrate measured after 10 mins by fluorescence assay
K562 = assay: Antiproliferative activity against human K562 cells measured after 48 hrs by MTT assay; type: functional, cell-based; conditions: K562, 48 h
HepG2 = assay: Antiproliferative activity against human HepG2 cells measured after 48 hrs by MTT assay; type: functional, cell-based; conditions: HepG2, 48 h
MV4-11 = assay: Antiproliferative activity against human MV4-11 cells measured after 48 hrs by MTT assay; type: functional, cell-based; conditions: MV4-11, 48 h
MDA-MB-468 = assay: Antiproliferative activity against human MDA-MB-468 cells measured after 48 hrs by MTT assay; type: functional, cell-based; conditions: MDA-MB-468, 48 h
[4] = target: T2, Serine/threonine-protein kinase A-Raf (Homo sapiens, UniProt P10398); assay: Inhibition of human ARAF using human His6-tagged MEK1 (K97R) as substrate preincubated for 20 mins followed by [33P-gamma]ATP addition and measured after 2 hrs by filter-binding assay
T2 sequence (P10398 whole entry): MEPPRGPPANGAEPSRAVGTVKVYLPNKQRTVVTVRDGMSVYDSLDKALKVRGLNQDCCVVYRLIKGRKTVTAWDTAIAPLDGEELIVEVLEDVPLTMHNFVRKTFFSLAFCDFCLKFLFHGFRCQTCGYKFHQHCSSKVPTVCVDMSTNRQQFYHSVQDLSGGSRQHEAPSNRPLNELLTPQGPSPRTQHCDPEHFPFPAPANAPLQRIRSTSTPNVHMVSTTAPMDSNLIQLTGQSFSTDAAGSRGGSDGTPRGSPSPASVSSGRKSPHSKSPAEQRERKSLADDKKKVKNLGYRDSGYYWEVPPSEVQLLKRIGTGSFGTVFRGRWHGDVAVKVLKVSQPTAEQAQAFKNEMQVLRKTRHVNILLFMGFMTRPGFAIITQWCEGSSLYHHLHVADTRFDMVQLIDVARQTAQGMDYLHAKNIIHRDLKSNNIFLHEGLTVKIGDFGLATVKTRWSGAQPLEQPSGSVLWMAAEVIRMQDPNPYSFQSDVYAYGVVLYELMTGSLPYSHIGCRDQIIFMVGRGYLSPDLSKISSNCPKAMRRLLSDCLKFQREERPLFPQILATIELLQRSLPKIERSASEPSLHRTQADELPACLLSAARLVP

[5] = target: T3, Protein deacetylase HDAC6 (Homo sapiens) (UniProt Q9UBN7); assay: Inhibition of recombinant human HDAC6 at 50 uM using Fluor-de-Lys as substrate measured after 10 mins by fluorescence assay
T3 sequence (whole entry): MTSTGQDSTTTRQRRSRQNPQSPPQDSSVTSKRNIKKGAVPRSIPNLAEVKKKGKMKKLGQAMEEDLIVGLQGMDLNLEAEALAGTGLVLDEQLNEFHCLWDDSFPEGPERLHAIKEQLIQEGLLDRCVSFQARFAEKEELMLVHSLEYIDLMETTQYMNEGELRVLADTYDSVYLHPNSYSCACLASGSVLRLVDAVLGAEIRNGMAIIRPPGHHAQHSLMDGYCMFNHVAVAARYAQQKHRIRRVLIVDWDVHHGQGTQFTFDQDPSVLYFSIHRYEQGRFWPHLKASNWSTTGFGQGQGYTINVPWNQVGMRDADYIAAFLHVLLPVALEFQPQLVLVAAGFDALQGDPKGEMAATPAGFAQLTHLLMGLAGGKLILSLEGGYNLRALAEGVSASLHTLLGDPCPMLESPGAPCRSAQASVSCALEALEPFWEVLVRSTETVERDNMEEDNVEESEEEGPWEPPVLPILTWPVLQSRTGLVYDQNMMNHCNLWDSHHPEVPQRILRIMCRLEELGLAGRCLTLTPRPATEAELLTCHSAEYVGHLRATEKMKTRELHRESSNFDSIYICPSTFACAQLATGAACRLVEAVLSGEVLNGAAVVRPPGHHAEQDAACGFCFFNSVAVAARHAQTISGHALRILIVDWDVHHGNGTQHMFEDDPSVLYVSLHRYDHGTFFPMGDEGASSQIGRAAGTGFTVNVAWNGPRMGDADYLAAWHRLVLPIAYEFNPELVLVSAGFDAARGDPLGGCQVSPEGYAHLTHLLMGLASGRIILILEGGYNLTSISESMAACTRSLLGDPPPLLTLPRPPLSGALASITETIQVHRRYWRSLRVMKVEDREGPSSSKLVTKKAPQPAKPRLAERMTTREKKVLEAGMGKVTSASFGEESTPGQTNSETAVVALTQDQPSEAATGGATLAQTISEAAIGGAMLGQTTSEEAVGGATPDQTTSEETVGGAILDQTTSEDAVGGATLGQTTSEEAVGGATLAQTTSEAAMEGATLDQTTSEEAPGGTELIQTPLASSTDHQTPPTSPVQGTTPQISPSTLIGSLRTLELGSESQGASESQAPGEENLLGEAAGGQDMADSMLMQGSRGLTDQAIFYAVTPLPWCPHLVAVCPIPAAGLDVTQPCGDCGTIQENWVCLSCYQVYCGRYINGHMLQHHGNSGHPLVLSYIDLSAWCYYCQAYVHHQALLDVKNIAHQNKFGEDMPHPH

[6] = target: T4, Histone deacetylase 8 (Homo sapiens) (UniProt Q9BY41); assay: Inhibition of recombinant full-length human C-terminal His-tagged HDAC8 expressed in baculovirus infected Sf9 insect cells at 50 uM using Fluor-de-Lys as substrate measured after 10 mins by fluorescence assay
T4 sequence (whole entry): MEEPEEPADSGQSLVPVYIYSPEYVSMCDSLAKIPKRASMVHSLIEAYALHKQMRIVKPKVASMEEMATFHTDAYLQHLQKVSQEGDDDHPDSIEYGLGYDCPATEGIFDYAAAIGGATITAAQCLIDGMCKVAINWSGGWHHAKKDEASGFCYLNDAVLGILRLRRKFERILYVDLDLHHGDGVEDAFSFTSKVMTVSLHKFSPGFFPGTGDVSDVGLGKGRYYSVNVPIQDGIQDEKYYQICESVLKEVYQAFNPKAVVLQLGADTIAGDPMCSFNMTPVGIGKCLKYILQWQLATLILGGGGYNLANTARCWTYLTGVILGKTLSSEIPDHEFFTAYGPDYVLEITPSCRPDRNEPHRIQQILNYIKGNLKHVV

[7] = target: RAF proto-oncogene serine/threonine-protein kinase (Homo sapiens, UniProt P04049); assay: Inhibition of human CRAF using human His6-tagged MEK1 (K97R) as substrate preincubated for 20 mins followed by [33P-gamma]ATP addition and measured after 2 hrs by filter-binding assay
RAF proto-oncogene serine/threonine-protein kinase, sequence (P04049 whole entry): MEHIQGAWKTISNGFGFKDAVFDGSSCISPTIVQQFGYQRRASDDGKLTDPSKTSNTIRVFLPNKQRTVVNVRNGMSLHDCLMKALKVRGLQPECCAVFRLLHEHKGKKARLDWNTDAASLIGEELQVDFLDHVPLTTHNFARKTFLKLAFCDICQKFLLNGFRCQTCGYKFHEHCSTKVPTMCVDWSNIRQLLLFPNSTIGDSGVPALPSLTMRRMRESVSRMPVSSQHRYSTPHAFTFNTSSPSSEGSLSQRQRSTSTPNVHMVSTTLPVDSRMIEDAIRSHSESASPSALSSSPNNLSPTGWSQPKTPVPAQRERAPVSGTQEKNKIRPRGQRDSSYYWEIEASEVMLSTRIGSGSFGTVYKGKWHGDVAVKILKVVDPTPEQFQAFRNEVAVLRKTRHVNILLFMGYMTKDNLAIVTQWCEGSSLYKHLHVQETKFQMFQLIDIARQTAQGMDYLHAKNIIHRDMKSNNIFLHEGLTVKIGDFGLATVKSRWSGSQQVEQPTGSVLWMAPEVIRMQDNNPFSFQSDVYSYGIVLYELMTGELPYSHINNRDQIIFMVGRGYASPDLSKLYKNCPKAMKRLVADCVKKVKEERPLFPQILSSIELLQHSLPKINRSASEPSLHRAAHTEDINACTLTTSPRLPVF

Histone deacetylase 1 [8] = target: T1, Histone deacetylase 1; assay: Inhibition of recombinant full-length human C-terminal FLAG/His-tagged HDAC1 expressed in baculovirus infected Sf9 insect cells at 50 uM using Fluor-de-Lys as substrate measured after 10 mins by fluorescence assay

T1 sequence (Q13547 whole entry, the tested form may be a part): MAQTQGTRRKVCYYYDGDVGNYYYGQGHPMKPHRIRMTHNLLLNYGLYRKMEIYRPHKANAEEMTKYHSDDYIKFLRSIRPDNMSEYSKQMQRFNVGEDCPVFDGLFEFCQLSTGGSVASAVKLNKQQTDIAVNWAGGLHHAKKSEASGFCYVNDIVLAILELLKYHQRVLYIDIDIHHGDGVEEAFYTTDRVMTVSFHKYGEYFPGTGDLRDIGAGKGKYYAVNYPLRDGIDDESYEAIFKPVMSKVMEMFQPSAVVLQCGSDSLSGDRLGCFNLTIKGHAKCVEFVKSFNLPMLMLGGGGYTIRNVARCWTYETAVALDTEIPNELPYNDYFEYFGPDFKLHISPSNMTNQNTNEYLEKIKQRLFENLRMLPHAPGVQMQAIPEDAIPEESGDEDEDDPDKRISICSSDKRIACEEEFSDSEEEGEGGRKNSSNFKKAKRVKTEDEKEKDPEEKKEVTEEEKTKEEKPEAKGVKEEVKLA

`CNC(=O)c1cc(Oc2ccc(NC(=O)c3cccnc3)cc2)ccc1N` was tested. Which IC50 (Histone deacetylase 1 [1]) did it give?
Its IC50 is 5.23 µM.

And the IC50 [2]?
Its IC50 is 1780 nM.

And the IC50 (Histone deacetylase 1 [3])?
The IC50 was 5230 nM.

Which results are given for `CNC(=O)c1cc(Oc2ccc(NC(=O)c3cccc(N)c3)cc2)ccc1N`?
IC50 [2]: 3260 nM; IC50 (Histone deacetylase 1 [3]): 1030 nM

For `CNC(=O)c1cc(Oc2ccc(NC(=O)c3ccc(Cl)cc3)cc2)ccc1N`, which IC50 (K562) is on record?
Its IC50 is 7.12 µM.

And the IC50 (HepG2)?
Its IC50 is 5.13 µM.

And the IC50 (MV4-11)?
Its IC50 is 9.23 µM.

And the IC50 [2]?
The IC50 was 165 nM.

And the IC50 (MDA-MB-468)?
Its IC50 is 4.24 µM.

And the IC50 (Histone deacetylase 1 [3])?
The IC50 was 7110 nM.

Which IC50 (K562) does the source give for `CNC(=O)c1cc(Oc2ccc(NC(=O)c3ccc(Cl)c(C(F)(F)F)c3)cc2)ccc1N` here?
Its IC50 is 2.73 µM.

And the IC50 (HepG2)?
The IC50 was 1.33 µM.

What about the IC50 [4] of the same compound?
Its IC50 is 183 nM.

What about the inhibition [5] of the same compound?
Its inhibition is “inactive”.

What about the IC50 (MV4-11) of the same compound?
The IC50 was 1.12 µM.

What about the IC50 [2] of the same compound?
Its IC50 is 73 nM.

What about the inhibition [6] of the same compound?
Its inhibition is “inactive”.

And the IC50 (MDA-MB-468)?
The IC50 was 0.57 µM.

And the IC50 (Histone deacetylase 1 [3])?
The IC50 was 1170 nM.

What about the IC50 [7] of the same compound?
Its IC50 is 92 nM.

For `CNC(=O)c1cc(Oc2ccc(NC(=O)c3cccc(O)c3)cc2)ccc1N`, which IC50 [2] is on record?
The IC50 was 4060 nM.

And the IC50 (Histone deacetylase 1 [3])?
Its IC50 is 1950 nM.

What does the source list for `CNC(=O)c1cc(Oc2ccc(NC(=O)Nc3ccc(Cl)c(C(F)(F)F)c3)cc2)ccn1` [SORAFENIB]?
IC50 (K562): 17.2 µM; IC50 (HepG2): 3.04 µM; IC50 (MV4-11): 0.51 µM; IC50 (MDA-MB-468): 12.2 µM

For `NC(=O)c1cc(Oc2ccc(NC(=O)c3ccc(Cl)c(C(F)(F)F)c3)cc2)ccc1N`, which IC50 [2] is on record?
Its IC50 is 688 nM.

What about the IC50 (Histone deacetylase 1 [3]) of the same compound?
Its IC50 is 2790 nM.

`CCNC(=O)c1cc(Oc2ccc(NC(=O)c3ccc(Cl)c(C(F)(F)F)c3)cc2)ccc1N` was tested. Which IC50 [2] did it give?
The IC50 was 354 nM.

And the IC50 (Histone deacetylase 1 [3])?
The IC50 was 1620 nM.

`CNC(=O)c1cc(Oc2ccc(NC(=O)c3ccc(N)cc3)cc2)ccc1N` was tested. Which IC50 [2] did it give?
Its IC50 is 942 nM.

What about the IC50 (Histone deacetylase 1 [3]) of the same compound?
The IC50 was 2270 nM.

Which results are given for `CNC(=O)c1cc(Oc2ccc(NC(=O)c3ccc4ccccc4c3)cc2)ccc1N`?
IC50 (K562): 10.3 µM; IC50 (HepG2): 7.28 µM; IC50 (MV4-11): 8.21 µM; IC50 [2]: 237 nM; IC50 (MDA-MB-468): 3.91 µM; IC50 (Histone deacetylase 1 [3]): 8210 nM

`CNC(=O)c1cc(Oc2ccc(NC(=O)c3ccccc3)cc2)ccc1N` was tested. Which IC50 [2] did it give?
Its IC50 is 342 nM.

And the IC50 (Histone deacetylase 1 [3])?
The IC50 was 6190 nM.

`CNC(=O)c1cc(Oc2ccc(NC(=O)c3ccc(F)cc3)cc2)ccc1N` was tested. Which IC50 (K562) did it give?
Its IC50 is 6.43 µM.

And the IC50 (HepG2)?
Its IC50 is 7.56 µM.

And the IC50 (MV4-11)?
The IC50 was 5.32 µM.

And the IC50 [2]?
The IC50 was 303 nM.

What about the IC50 (MDA-MB-468) of the same compound?
The IC50 was 5.76 µM.

What about the IC50 (Histone deacetylase 1 [3]) of the same compound?
The IC50 was 7650 nM.

With `CNC(=O)c1cc(Oc2ccc(NC(=O)c3ccc(OC)cc3)cc2)ccc1N` as the compound, how does the IC50 (K562) read?
The IC50 was 5.22 µM.

What about the IC50 (HepG2) of the same compound?
The IC50 was 6.65 µM.

What about the IC50 [4] of the same compound?
Its IC50 is 211 nM.

What about the inhibition [5] of the same compound?
The inhibition was “inactive”.

And the IC50 (MV4-11)?
The IC50 was 1.87 µM.

What about the IC50 [2] of the same compound?
The IC50 was 187 nM.

What about the inhibition [6] of the same compound?
Its inhibition is “inactive”.

What about the IC50 (MDA-MB-468) of the same compound?
Its IC50 is 0.95 µM.

What about the IC50 (Histone deacetylase 1 [3]) of the same compound?
Its IC50 is 2460 nM.

What about the IC50 [7] of the same compound?
Its IC50 is 652 nM.

How did the IC50 (K562) turn out when `Nc1cc(F)ccc1NC(=O)c1ccc(CNC(=O)/C=C/c2cccnc2)cc1` [TUCIDINOSTAT] was run?
Its IC50 is 0.87 µM.

And the IC50 (HepG2)?
Its IC50 is 4.89 µM.

What about the inhibition [5] of the same compound?
Its inhibition is “inactive”.

What about the IC50 (MV4-11) of the same compound?
Its IC50 is 3.73 µM.

What about the inhibition [6] of the same compound?
Its inhibition is “inactive”.

And the IC50 (MDA-MB-468)?
Its IC50 is 2.65 µM.

How did the inhibition (Histone deacetylase 1 [8]) turn out when `CN(C)C(=O)c1cc(Oc2ccc(NC(=O)c3ccc(Cl)c(C(F)(F)F)c3)cc2)ccc1N` was run?
Its inhibition is “inactive”.

And the IC50 [2]?
Its IC50 is 4170 nM.
